{"source": "paper PMC5444695", "about": "“CM363, a novel naphthoquinone derivative which acts as multikinase modulator and overcomes imatinib resistance in chronic myelogenous leukemia” (Oncotarget, 2016)", "key": {"K562-R cells": {"test_system": "K562-R cells", "assay": "MTT cell viability assay, IM-resistant K562-R cells", "type": "cell-based, human", "settings": "72 h, MTT (Fig 10D)", "procedure": "All cell lines were purchased from the American Type Culture Collection (ATCC). The cell lines were growth at 37°C under 5% CO2 under humidified atmosphere. […] The cell lines L1210 (mouse lymphocytic leukemia cells), Raw (mouse macrophage), HeLa (human epithelial cervix cancer), U-2 OS (human osteosarcoma), MG63 (human osteosarcoma) and T47D (human breast cancer adenocarcinoma) were maintained in DMEM. HEK293 cells stably expressing the GH receptor (HEKGHR) were maintained in DMEM-F12 medium. The human breast cancer cell line SKBR3 was maintained in McCoy’s 5A medium. Cell culture medium was supplemented with 10% FBS, L-glutamine (2 mM) and PEST. In addition, the cell culture medium for T47D was supplemented with 1 mM NaPyr and 10 mM HEPES. Human peripheral blood mononuclear cells (PBMC) were isolated from heparin-anticoagulated blood of healthy volunteers by centrifugation with Ficoll-Paque Plus (Amersham Biosciences).\nThe mitochondrial metabolization of the tetrazolium salt 3-(4,5-methyltiazol-2yl-)-2,5diphenyl-tetrazolium bromide] (MTT) (Applichen, Germany) was used as indicator of cell viability. Optical density was measured at 595 nm with the iMark Microplate Reader (BioRad, CA, USA)."}, "Stat5 response element": {"test_system": "Stat5 response element", "assay": "Stat5 luciferase reporter gene assay in HEKGHR cells", "type": "cell-based", "settings": "1 h pretreatment then GH 7 h", "procedure": "The HEKGHR cell line was used to determine the effects of compounds on GH-regulated Stat5 transcriptional activity. HEKGHR cells were transfected with pSPI-GLE1-Luc (1 μg) overnight using Metafectene Pro® (Biontex, Germany). The β-galactosidase expression plasmid (0.05 μg) (Thermo Scientific, Illinois, USA) was used for controlling transfection efficiency. The stable reporter cell line HeLa/Stat3-luc (Panomics, Fremont, USA), was used to determine the effects of compounds on oncostatin M-regulated Stat3 transcriptional activity. Cells were seeded in a 6-well culture plate (Nunc, Denmark) and they were serum deprived (0.5% FBS) for 16 h. Then, cells were treated with vehicle (0.05% DMSO) or compound (0.1 to 10 μM) during 1 h before rhGH (50 nM) or oncostatin M (50 ng/ml) were added for 7 h for induction of Stat5- or Stat3-dependent transcriptional activities, respectively. Cells were lysed in Passive Lysis Buffer and luciferase activity was determined by the Luciferase Assay System (Thermo Scientific, Illinois, USA). Luciferase activity was measured using the microplate reader Fluoroskan Ascent FL (Labsystems). Results are expressed as relative luciferase units (RLU) per mg of protein content and β-galactosidase activity and normalized to those obtained for vehicle-treated control cells."}, "SKBR3 cells": {"test_system": "SKBR3 cells", "assay": "MTT cell viability assay, SKBR3 cells", "type": "cell-based", "settings": "Homo sapiens, SK-BR-3, SKBR3, 48 h, read-out: IC50 (μM) Mean ± SD"}, "T47D cells": {"test_system": "T47D cells", "assay": "MTT cell viability assay, T47D cells", "type": "cell-based", "settings": "Homo sapiens, 48 h, read-out: IC50 (μM) Mean ± SD", "procedure": "(§1) All cell lines were purchased from the American Type Culture Collection (ATCC). The cell lines were growth at 37°C under 5% CO2 under humidified atmosphere. The cell lines K562 (derived from patients during the blast crisis phase of CML and IM sensitive), K562-R (IM resistance human CML), KmycBT15I (KBTI; IM resistant human CML, expressing the Bcr-Abl […] mutant), HEL (human erythroleukemia), HL60 (human acute myeloid leukemia), MOLM-13 (human acute myeloid leukemia), MV4.11 (human acute monocytic leukemia), HCT-15 (human colorectal adenocarcinoma), PC3 (human prostate cancer), MCF7 (human breast cancer), NCTC3749 (mouse lymphoma) as well as the MRC.5 cells (non-malignant human lung fibroblasts) were maintained in RPMI-1640 medium. The cell lines L1210 (mouse lymphocytic leukemia cells), Raw (mouse macrophage), HeLa (human epithelial cervix cancer), U-2 OS (human osteosarcoma), MG63 (human osteosarcoma) and T47D (human breast cancer adenocarcinoma) were maintained in DMEM. HEK293 cells stably expressing the GH receptor (HEKGHR) were maintained in DMEM-F12 medium. […]\n(§2) Cells were seeded in 96-well plates (BD Falcon, France) at exponential growth density (5000–20000 cells/well) and treated with vehicle (0.05% DMSO) or compound (0.01 to 10 μM) for 48–72 h. […] Optical density was measured at 595 nm with the iMark Microplate Reader (BioRad, CA, USA)."}, "L1210 cells": {"test_system": "L1210 cells", "assay": "MTT cell viability assay, L1210 cells", "type": "cell-based", "settings": "Mus musculus, L1210, 48 h, read-out: IC50 (μM) Mean ± SD", "procedure": "as §1, §2"}, "HEL cells": {"test_system": "HEL cells", "assay": "MTT cell viability assay, HEL cells", "type": "cell-based", "settings": "Homo sapiens, 48 h, read-out: IC50 (μM) Mean ± SD", "procedure": "as §1, §2"}, "MRC.5 cells": {"test_system": "MRC.5 cells", "assay": "MTT cell viability assay, MRC.5 cells", "type": "cell-based", "settings": "Homo sapiens, MRC5, MRC.5 non-malignant lung fibroblasts, 48 h, read-out: IC50 (μM) Mean ± SD", "procedure": "as §1, §2"}, "pYStat5": {"test_system": "pYStat5", "assay": "GM-CSF-induced pYStat5 in primary mouse macrophages", "type": "cell-based", "settings": "3 μM CM363 for 0.5 h, data not shown"}, "MCF7 cells": {"test_system": "MCF7 cells", "assay": "MTT cell viability assay, MCF7 cells", "type": "cell-based", "settings": "Homo sapiens, MCF7, 48 h, read-out: IC50 (μM) Mean ± SD", "procedure": "as §1, §2"}, "HeLa cells": {"test_system": "HeLa cells", "assay": "MTT cell viability assay, HeLa cells", "type": "cell-based", "settings": "Homo sapiens, 48 h, read-out: IC50 (μM) Mean ± SD", "procedure": "as §1, §2"}, "KBTI cells": {"test_system": "KBTI cells", "assay": "Viability of IM-resistant KBTI cells", "type": "cell-based", "settings": "IM-resistant KBTI human cells, data not shown", "procedure": "as §1, §2"}, "K562 cells": {"test_system": "K562 cells", "assay": "MTT cell viability assay, K562 cells", "type": "cell-based, human", "settings": "for IC50: Homo sapiens", "procedure": "All cell lines were purchased from the American Type Culture Collection (ATCC). The cell lines were growth at 37°C under 5% CO2 under humidified atmosphere. The cell lines K562 (derived from patients during the blast crisis phase of CML and IM sensitive), K562-R (IM resistance human CML), KmycBT15I (KBTI; IM resistant human CML, expressing the Bcr-Abl […] mutant), HEL (human erythroleukemia), HL60 (human acute myeloid leukemia), MOLM-13 (human acute myeloid leukemia), MV4.11 (human acute monocytic leukemia), HCT-15 (human colorectal adenocarcinoma), PC3 (human prostate cancer), MCF7 (human breast cancer), NCTC3749 (mouse lymphoma) as well as the MRC.5 cells (non-malignant human lung fibroblasts) were maintained in RPMI-1640 medium. The cell lines L1210 (mouse lymphocytic leukemia cells), Raw (mouse macrophage), HeLa (human epithelial cervix cancer), U-2 OS (human osteosarcoma), MG63 (human osteosarcoma) and T47D (human breast cancer adenocarcinoma) were maintained in DMEM. HEK293 cells stably expressing the GH receptor (HEKGHR) were maintained in DMEM-F12 medium. The human breast cancer cell line SKBR3 was maintained in McCoy’s 5A medium. Cell culture medium was supplemented with 10% FBS, L-glutamine (2 mM) and PEST. In addition, the cell culture medium for T47D was supplemented with 1 mM NaPyr and 10 mM HEPES. Human peripheral blood mononuclear cells (PBMC) were isolated from heparin-anticoagulated blood of healthy volunteers by centrifugation with Ficoll-Paque Plus (Amersham Biosciences).\nCells were seeded in 96-well plates (BD Falcon, France) at exponential growth density (5000–20000 cells/well) and treated with vehicle (0.05% DMSO) or compound (0.01 to 10 μM) for 48–72 h. The mitochondrial metabolization of the tetrazolium salt 3-(4,5-methyltiazol-2yl-)-2,5diphenyl-tetrazolium bromide] (MTT) (Applichen, Germany) was used as indicator of cell viability. Optical density was measured at 595 nm with the iMark Microplate Reader (BioRad, CA, USA)."}, "MV4.11 cells": {"test_system": "MV4.11 cells", "assay": "MTT cell viability assay, MV4.11 cells", "type": "cell-based", "settings": "Homo sapiens, MV4.11, 48 h, read-out: IC50 (μM) Mean ± SD", "procedure": "as §1, §2"}, "U-2 OS cells": {"test_system": "U-2 OS cells", "assay": "MTT cell viability assay, U-2 OS cells", "type": "cell-based", "settings": "Homo sapiens, U2OS, 48 h, read-out: IC50 (μM) Mean ± SD", "procedure": "as §1, §2"}, "HEK cells": {"test_system": "HEK cells", "assay": "MTT cell viability assay, HEK cells", "type": "cell-based", "settings": "Homo sapiens, HEK293, 48 h, read-out: IC50 (μM) Mean ± SD", "procedure": "as §1, §2"}}, "note": "Read-outs that look alike come from different tables or passages of the source.", "data": [{"smiles": "N#Cc1ccc(C2C3=C(CCCC3=O)OC3=C2C(=O)c2ccccc2C3=O)cc1", "note": "(stereo not drawn) [CM363, 4-(1,6,11-trioxo-2,3,4,6,11,12-hexahydro-1H-benzo[b]xanthen-12-yl)benzonitrile]", "values": [{"measurement": "lowest concentration at which inhibition was detected", "setting": "K562-R cells", "result": 0.3, "unit": "µM"}, {"measurement": "IC50", "setting": "K562-R cells; Homo sapiens, K-562R", "result": "~600", "unit": "nM"}, {"measurement": "Stat5-dependent reporter gene (luciferase) activity", "setting": "Stat5 response element", "result": "inhibit"}, {"measurement": "IC50", "setting": "SKBR3 cells", "result": "2.6 ± 0.8", "unit": "µM"}, {"measurement": "IC50", "setting": "T47D cells", "result": "1.3 ± 1.2", "unit": "µM"}, {"measurement": "IC50", "setting": "L1210 cells", "result": "3.4 ± 0.4", "unit": "µM"}, {"measurement": "IC50", "setting": "HEL cells", "result": "1.3 ± 0.3", "unit": "µM"}, {"measurement": "IC50", "setting": "MRC.5 cells", "result": 3.5, "unit": "µM"}, {"measurement": "inhibition of GM-CSF-induced (10 min) pYStat5", "setting": "pYStat5", "result": "complete inhibition"}, {"measurement": "IC50", "setting": "MCF7 cells", "result": "1.7 ± 1.1", "unit": "µM"}, {"measurement": "IC50", "setting": "HeLa cells", "result": "4.8 ± 0.4", "unit": "µM"}, {"measurement": "sensitivity of KBTI cells", "setting": "KBTI cells", "result": "partial resistance"}, {"measurement": "IC50", "setting": "K562 cells; IM sensitive K562, 72 h, MTT (Fig 10D), read-out: IC50, cell viability", "result": "~0.6", "unit": "µM"}, {"measurement": "IC50", "setting": "K562 cells; K562, 48 h, MTT, read-out: IC50 (μM) Mean ± SD", "result": "0.7 ± 0.5", "unit": "µM"}, {"measurement": "lowest concentration at which inhibition was detected", "setting": "K562 cells; IM sensitive K562, 72 h, MTT (Fig 10D)", "result": 0.3, "unit": "µM"}, {"measurement": "IC50", "setting": "MV4.11 cells", "result": "1.2 ± 1.1", "unit": "µM"}, {"measurement": "IC50", "setting": "U-2 OS cells", "result": "4.3 ± 1.2", "unit": "µM"}, {"measurement": "IC50", "setting": "HEK cells", "result": "0.6 ± 0.2", "unit": "µM"}]}]}
